Experimental data published in the CheMixHub viscosity set.

Assay: xn = mol fraction of the nth substance listed

CCCCCCn1cc[n+](C)c1.[Cl][Fe-]([Cl])([Cl])[Cl] + CCOC(C)=O
viscosity [mPa·s], 101 kPa
Settings	x1 = 0.093	x1 = 0.1851	x1 = 0.2815	x1 = 0.377	x1 = 0.4719	x1 = 0.5799	x1 = 0.6752	x1 = 0.7764	x1 = 0.8869
293.15 K	1.14	2.3	4.29	7.45	11.71	18.13	26.64	36.57	51.89
298.15 K	1.07	2.11	3.87	6.62	10.22	15.53	22.42	30.27	42.15
303.15 K	1.01	1.95	3.51	5.93	9.02	13.48	19.08	25.46	34.86
308.15 K	0.95	1.8	3.2	5.34	8.01	11.79	16.45	21.68	29.26
313.15 K	0.89	1.68	2.93	4.84	7.18	10.4	14.33	18.64	24.83
318.15 K	0.85	1.57	2.7	4.42	6.46	9.26	12.6	16.23	21.38
323.15 K	0.8	1.47	2.5	4.05	5.85	8.3	11.15	14.24	18.51

CC(O)CCO (centres undefined) + CN1CCCC1=O
308.15 K, 101 kPa
Settings	viscosity [mPa·s]
x1 = 0.0282	1.736
x1 = 0.0582	1.864
x1 = 0.1089	2.153
x1 = 0.2015	2.678
x1 = 0.3004	3.197
x1 = 0.4043	4.211
x1 = 0.4985	6.742
x1 = 0.5972	9.628
x1 = 0.7036	14.66
x1 = 0.798	22.77
x1 = 0.9029	34.77
x1 = 0.94	43.52
x1 = 0.9796	51.25

CC(O)CCO (centres undefined) + CN(C)C=O
308.15 K, 101 kPa
Settings	viscosity [mPa·s]
x1 = 0.0531	0.762
x1 = 0.1	0.87
x1 = 0.1985	1.178
x1 = 0.3069	1.688
x1 = 0.4018	2.399
x1 = 0.4993	3.462
x1 = 0.6107	6.621
x1 = 0.6844	9.795
x1 = 0.7882	17.12
x1 = 0.8916	28.94
x1 = 0.9544	38.83

c1ccncc1 + CO
298 K, 101.3 kPa
Settings	viscosity [mPa·s]
x2 = 0.1249	0.85
x2 = 0.2338	0.82
x2 = 0.4192	0.763
x2 = 0.5695	0.714
x2 = 0.694	0.67
x2 = 0.7987	0.631
x2 = 0.8881	0.596
x2 = 0.9652	0.565

c1ccncc1 + CS(C)=O
viscosity [mPa·s], 101.3 kPa
Settings	298.15 K	308.15 K	318.15 K
x1 = 0.041	1.859	1.535	1.246
x1 = 0.089	1.803	1.47	1.191
x1 = 0.18	1.6	1.318	1.098
x1 = 0.274	1.488	1.2	1.042
x1 = 0.369	1.38	1.13	0.972
x1 = 0.468	1.28	1.044	0.922
x1 = 0.569	1.185	0.984	0.858
x1 = 0.673	1.097	0.913	0.795
x1 = 0.779	1.029	0.849	0.753
x1 = 0.888	0.969	0.791	0.723
x1 = 0.943	0.975	0.76	0.715

c1ccncc1 + Cc1ccc(C)cc1
viscosity [mPa·s], 101 kPa
Settings	x2 = 0.0992	x2 = 0.1993	x2 = 0.2987	x2 = 0.3993	x2 = 0.4949	x2 = 0.6001	x2 = 0.6997	x2 = 0.7994	x2 = 0.8981
293.15 K	0.8699	0.8193	0.7862	0.7311	0.6964	0.6582	0.6345	0.6152	0.5919
303.15 K	0.7603	0.7165	0.6902	0.6422	0.6139	0.5868	0.5656	0.5475	0.5316
313.15 K	0.6704	0.6302	0.6051	0.565	0.5399	0.5172	0.4986	0.4819	0.4686
323.15 K	0.5894	0.5534	0.5296	0.496	0.4742	0.4548	0.4385	0.4238	0.4123
